Test results: patent US5145990A, “Phosphorous containing dhp enzyme inhibitors” (Merck & Co., Inc., priority 1991, dated 1992)
pKi: −log10 of the molar value.

Biological target: T1, renal dehydropeptidase I (renal dipeptidase, E.C. 3.4.13.11) (Sus scrofa, UniProt P22412)
T1 construct: solubilized preparation of […] isolated from hog kidneys; from tissue; host or cells: hog kidney
T1 sequence (P22412 17-409): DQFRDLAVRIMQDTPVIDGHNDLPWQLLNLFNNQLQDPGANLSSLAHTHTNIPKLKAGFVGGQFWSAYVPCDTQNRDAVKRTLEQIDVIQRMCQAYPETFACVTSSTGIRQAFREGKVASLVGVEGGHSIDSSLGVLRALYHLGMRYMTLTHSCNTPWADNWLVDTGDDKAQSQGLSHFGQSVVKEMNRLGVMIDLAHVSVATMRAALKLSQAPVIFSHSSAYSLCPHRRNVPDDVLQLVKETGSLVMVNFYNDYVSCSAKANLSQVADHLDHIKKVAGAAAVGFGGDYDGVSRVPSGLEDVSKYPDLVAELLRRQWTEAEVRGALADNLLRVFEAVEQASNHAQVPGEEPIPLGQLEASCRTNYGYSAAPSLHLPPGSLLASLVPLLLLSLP
Assay: In vitro screen: inhibition of hydrolysis of glycyldehydrophenylalanine (GDP) by solubilized renal dipeptidase
Assay type: biochemical
Conditions: Table I, structure II; hog kidney enzyme, GDP 0.05 mM, pH 7.1, 37° C., 275 nm
Protocol: Renal dehydropeptidase activity was first described by M. Bergmann and H. Schleich, Z. Physiol. Chem., 205, 65 (1932); see also B. J. Campbell et al., Biochem. Biophys. Acta, 118, 371 (1966) and references therein.
This measured the ability of compounds to inhibit hydrolysis of glycyldehydrophenylalanine (GDP) by a solubilized preparation of […] isolated from hog kidneys. The procedure is as follows: to a 1 ml system containing 50 mM "MOPS" (3-(N-morpholino)-propanesulfonic acid) buffer, pH 7.1 is added 5 mg of lyophilized enzyme, and the test compound at a final concentration of 0.1 mM. After a five minute incubation of 37° C., GDP is added to a final concentration of 0.05 mM. Incubation is continued for 10 minutes, at 37° C. and hydrolysis of GDP is measured by the change in optical density with time at 275 nm. Inhibition of the enzyme is gauged by comparison to a standard run containing no inhibitor and is expressed as the inhibitor binding constant K. This is the concentration of the inhibitor which achieves 50% inhibition of enzyme.

Row | pKi | SMILES
1 | 7.68 | CC(C)/C=C(/CP(=O)(O)C(N)CC1CCCCC1)C(=O)O (centres unmarked)
2 | 8.68 | CC(C)/C=C(\CP(=O)(O)C(N)CC1CCCCC1)C(=O)O (centres unmarked)
